Results taken from patent US10961231B2, “NTCP inhibitors” (National Institute of Biological Sciences, Beijing, priority 2018, dated 2021).

molecular target: T1, NTCP (Homo sapiens, UniProt Q14973); assay: [3H]-TCA uptake assay (NTCP inhibition); assay type: cell-based; settings: IC50, given as a range, marked * (asterisk not explained)
T1 sequence (Q14973 1-349): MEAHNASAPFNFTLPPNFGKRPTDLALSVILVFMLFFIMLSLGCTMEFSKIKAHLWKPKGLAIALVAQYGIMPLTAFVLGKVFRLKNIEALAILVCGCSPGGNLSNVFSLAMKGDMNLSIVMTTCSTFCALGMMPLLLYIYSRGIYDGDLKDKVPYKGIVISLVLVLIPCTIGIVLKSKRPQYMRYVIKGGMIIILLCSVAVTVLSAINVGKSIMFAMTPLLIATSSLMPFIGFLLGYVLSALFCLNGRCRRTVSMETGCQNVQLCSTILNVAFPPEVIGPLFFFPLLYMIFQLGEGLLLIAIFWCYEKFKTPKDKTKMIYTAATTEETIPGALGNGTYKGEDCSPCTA
Experimental: [^3H]-TCA uptake assay. PTH and HepG2-NTCP cells were cultured in PMM for 24 hours to induce NTCP expression. After treated by DMSO or test compounds for 2 hours, the cells were then incubated with 1 μM [^3H]-taurocholate acid dissolved in Na^+ Ringer's buffer (the concentration of Na was 145 mM) for 15 minutes at 37° C. Subsequently, the cells were washed once in phosphate-buffered saline (PBS) and lysed in 50 μL 1% TritonX-100 in H2O for 5 minutes at room temperature. The lysate were totally transferred into a liquid scintillation 96 well plate and mixed with 200 μL liquid scintillation cocktail (Ultima Gold XR, PerkinElmer). Liquid scintillation counting was performed on a PerkinElmer 1450 LSC liquid scintillation counter.

SMILES | IC50
CCC1NC(=O)C(C2OC(Sc3cccc(OCCN(C)C)c3)CC2C)N(C)C(=O)C(C(C)C)N(C)C(=O)C(CC(C)C)N(C)C(=O)C(CC(C)C)N(C)C(=O)C(C)NC(=O)C(C)NC(=O)C(CC(C)C)N(C)C(=O)C(C(C)C)NC(=O)C(CC(C)C)N(C)C(=O)CN(C)C1=O [Compound 14A, [2-((2R,3R)-5-(3-(2-(dimethylamino)ethoxy)phenylthio)-3-methyltetrahydrofuran-2-yl)-2-(methylamino)acetic acid]^1-cyclosporin A] | 1 to 100 µM
CCC1NC(=O)C(C2OC(Oc3cccc(OCCN(C)C)c3)CC2C)N(C)C(=O)C(C(C)C)N(C)C(=O)C(CC(C)C)N(C)C(=O)C(CC(C)C)N(C)C(=O)C(C)NC(=O)C(C)NC(=O)C(CC(C)C)N(C)C(=O)C(C(C)C)NC(=O)C(CC(C)C)N(C)C(=O)CN(C)C1=O (stereo not shown) [Compound 14A-o] | 1 to 100 µM
CCC1NC(=O)C(C2OC(Oc3cccc(OCc4ccccc4F)c3)CC2C)N(C)C(=O)C(C(C)C)N(C)C(=O)C(CC(C)C)N(C)C(=O)C(CC(C)C)N(C)C(=O)C(C)NC(=O)C(C)NC(=O)C(CC(C)C)N(C)C(=O)C(C(C)C)NC(=O)C(CC(C)C)N(C)C(=O)CN(C)C1=O (stereo not shown) [Compound 19A-o] | 1 to 100 µM
CCC1NC(=O)C(C2OC(Oc3cccc(OCc4cccc(F)c4)c3)CC2C)N(C)C(=O)C(C(C)C)N(C)C(=O)C(CC(C)C)N(C)C(=O)C(CC(C)C)N(C)C(=O)C(C)NC(=O)C(C)NC(=O)C(CC(C)C)N(C)C(=O)C(C(C)C)NC(=O)C(CC(C)C)N(C)C(=O)CN(C)C1=O (stereo not shown) [Compound 20A-o] | 1 to 100 µM

same assay, conditions: IC50, given as a range; assay not given

SMILES | IC50
CCC1NC(=O)C(C2OC(Sc3cccc(OCCC4CCCN4C)c3)CC2C)N(C)C(=O)C(C(C)C)N(C)C(=O)C(CC(C)C)N(C)C(=O)C(CC(C)C)N(C)C(=O)C(C)NC(=O)C(C)NC(=O)C(CC(C)C)N(C)C(=O)C(C(C)C)NC(=O)C(CC(C)C)N(C)C(=O)CN(C)C1=O [Compound 15A, [2-((2R,3R)-3-methyl-5-(3-(2-(1-methylpyrrolidin-2-yl)ethoxy)phenylthio)tetrahydrofuran-2-yl)-2-(methylamino)acetic acid]^1-cyclosporin A] | 1 to 10 µM

same assay, conditions: given as a range, marked * (asterisk not explained)

SMILES | IC50
CCC1NC(=O)C(C2OC(Oc3cccc(OCc4ccc(CN(C)C)cc4)c3)CC2C)N(C)C(=O)C(C(C)C)N(C)C(=O)C(CC(C)C)N(C)C(=O)C(CC(C)C)N(C)C(=O)C(C)NC(=O)C(C)NC(=O)C(CC(C)C)N(C)C(=O)C(C(C)C)NC(=O)C(CC(C)C)N(C)C(=O)CN(C)C1=O (stereo not shown) [Compound 13A-o] | 1 to 100 µM
CCC1NC(=O)C(C2OC(Oc3cccc(OCc4ccn(C)c(=O)c4)c3)CC2C)N(C)C(=O)C(C(C)C)N(C)C(=O)C(CC(C)C)N(C)C(=O)C(CC(C)C)N(C)C(=O)C(C)NC(=O)C(C)NC(=O)C(CC(C)C)N(C)C(=O)C(C(C)C)NC(=O)C(CC(C)C)N(C)C(=O)CN(C)C1=O (stereo not shown) [Compound 16A-o] | 1 to 100 µM
CCC1NC(=O)C(C2OC(Oc3cccc(OCc4ccc(-n5cccn5)cc4)c3)CC2C)N(C)C(=O)C(C(C)C)N(C)C(=O)C(CC(C)C)N(C)C(=O)C(CC(C)C)N(C)C(=O)C(C)NC(=O)C(C)NC(=O)C(CC(C)C)N(C)C(=O)C(C(C)C)NC(=O)C(CC(C)C)N(C)C(=O)CN(C)C1=O (stereo not shown) [Compound 17A-o] | 1 to 100 µM
CCC1NC(=O)C(C2OC(Oc3cccc(OCc4ccc5c(c4)OCO5)c3)CC2C)N(C)C(=O)C(C(C)C)N(C)C(=O)C(CC(C)C)N(C)C(=O)C(CC(C)C)N(C)C(=O)C(C)NC(=O)C(C)NC(=O)C(CC(C)C)N(C)C(=O)C(C(C)C)NC(=O)C(CC(C)C)N(C)C(=O)CN(C)C1=O (stereo not shown) [Compound 18A-o] | 1 to 100 µM

same assay, conditions: given as a range; assay not given

SMILES | IC50
CCC1NC(=O)C(C2OC(Sc3cccc(OCc4ccccc4)c3)CC2C)N(C)C(=O)C(C(C)C)N(C)C(=O)C(CC(C)C)N(C)C(=O)C(CC(C)C)N(C)C(=O)C(C)NC(=O)C(C)NC(=O)C(CC(C)C)N(C)C(=O)C(C(C)C)NC(=O)C(CC(C)C)N(C)C(=O)CN(C)C1=O [Compound 12A, [2-((2R,3R)-5-(3-(benzyloxy)phenylthio)-3-methyltetrahydrofuran-2-yl)-2-(methylamino)acetic acid]^1-cyclosporin A] | 0.001 to 1 µM
CCC1NC(=O)C(C2OC(Sc3cccc(OCc4ccc(CN(C)C)cc4)c3)CC2C)N(C)C(=O)C(C(C)C)N(C)C(=O)C(CC(C)C)N(C)C(=O)C(CC(C)C)N(C)C(=O)C(C)NC(=O)C(C)NC(=O)C(CC(C)C)N(C)C(=O)C(C(C)C)NC(=O)C(CC(C)C)N(C)C(=O)CN(C)C1=O [Compound 13A, [2-((2R,3R)-5-(3-(4-((dimethylamino)methyl)benzyloxy)phenylthio)-3-methyltetrahydrofuran-2-yl)-2-(methylamino)acetic acid]^1-cyclosporin A] | 0.001 to 1 µM
CCC1NC(=O)C(C2OC(Sc3cccc(OCc4ccn(C)c(=O)c4)c3)CC2C)N(C)C(=O)C(C(C)C)N(C)C(=O)C(CC(C)C)N(C)C(=O)C(CC(C)C)N(C)C(=O)C(C)NC(=O)C(C)NC(=O)C(CC(C)C)N(C)C(=O)C(C(C)C)NC(=O)C(CC(C)C)N(C)C(=O)CN(C)C1=O [Compound 16A, [2-((2R,3R)-3-methyl-5-(3-((1-methyl-2-oxo-1,2-dihydropyridin-4-yl)methoxy)phenylthio)tetrahydrofuran-2-yl)-2-(methylamino)acetic acid]^1-cyclosporin A] | 1 to 10 µM
CCC1NC(=O)C(C2OC(Sc3cccc(OCc4ccc5c(c4)OCO5)c3)CC2C)N(C)C(=O)C(C(C)C)N(C)C(=O)C(CC(C)C)N(C)C(=O)C(CC(C)C)N(C)C(=O)C(C)NC(=O)C(C)NC(=O)C(CC(C)C)N(C)C(=O)C(C(C)C)NC(=O)C(CC(C)C)N(C)C(=O)CN(C)C1=O [Compound 18A, [2-((2R,3R)-5-(3-(benzo[d][1,3]dioxol-5-ylmethoxy)phenylthio)-3-methyltetrahydrofuran-2-yl)-2-(methylamino)acetic acid]^1-cyclosporin A] | 0.001 to 1 µM
CCC1NC(=O)C(C2OC(Sc3cccc(OCc4ccccc4F)c3)CC2C)N(C)C(=O)C(C(C)C)N(C)C(=O)C(CC(C)C)N(C)C(=O)C(CC(C)C)N(C)C(=O)C(C)NC(=O)C(C)NC(=O)C(CC(C)C)N(C)C(=O)C(C(C)C)NC(=O)C(CC(C)C)N(C)C(=O)CN(C)C1=O [Compound 19A, [2-((2R,3R)-5-(3-(2-fluorobenzyloxy)phenylthio)-3-methyltetrahydrofuran-2-yl)-2-(methylamino)acetic acid]^1-cyclosporin A] | 0.001 to 1 µM
CCC1NC(=O)C(C2OC(Sc3cccc(OCc4cccc(F)c4)c3)CC2C)N(C)C(=O)C(C(C)C)N(C)C(=O)C(CC(C)C)N(C)C(=O)C(CC(C)C)N(C)C(=O)C(C)NC(=O)C(C)NC(=O)C(CC(C)C)N(C)C(=O)C(C(C)C)NC(=O)C(CC(C)C)N(C)C(=O)CN(C)C1=O [Compound 20A, [2-((2R,3R)-5-(3-(3-fluorobenzyloxy)phenylthio)-3-methyltetrahydrofuran-2-yl)-2-(methylamino)acetic acid]^1-cyclosporin A] | 0.001 to 1 µM

same assay, conditions: given as a range; assay not given; read-out: IC50

SMILES | IC50
CC[C@@H]1NC(=O)[C@H]([C@@H]2OC(Sc3cccc(OCc4ccc(-n5cccn5)cc4)c3)C[C@H]2C)N(C)C(=O)[C@H](C(C)C)N(C)C(=O)[C@H](CC(C)C)N(C)C(=O)[C@H](CC(C)C)N(C)C(=O)[C@@H](C)NC(=O)[C@H](C)NC(=O)[C@H](CC(C)C)N(C)C(=O)[C@H](C(C)C)NC(=O)[C@H](CC(C)C)N(C)C(=O)CN(C)C1=O (stereo partly drawn) [Compound 17A, [2-((2R,3R)-5-(3-(4-(1H-pyrazol-1-yl)benzyloxy)phenylthio)-3-methyltetrahydrofuran-2-yl)-2-(methylamino)acetic acid]^1-cyclosporin A] | 0.001 to 1 µM
